One series concerns Trifoliumre pensL. The series is described as follows: Post-emergence herbicidal activity test (stem and leaf spray, pot culture). It is filed as in vivo. Particulars: 3 weeks after spraying. The gist of the method: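 Rates of 10, 5 and 2.5 g/mu were applied in a single spray-tower treatment to 2–3-leaf plants, thinned to 10 per pot. Formulation: acetone solution, Tween 80, 1.5 L/ha methyl oleate synergist. Weed response assessed after 3 further greenhouse weeks; mean of three experiments.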

The subject of a further series is Amaranthus retroflexus. The series is described as follows: Post-emergence herbicidal activity test (stem and leaf spray, pot culture). It is filed as in vivo. Particulars: 3 weeks after spraying. The gist of the method: (§1)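 Activity is given as a 0–5 grade of fresh weight growth control, scored three weeks after a single stem-and-leaf spray. Weeds in farmland loam were treated at the 2- to 3-leaf stage at 10, 5 and 2.5 g/mu, with methyl oleate added as synergist.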

The subject of a further series is Abutilon theophrasti. Described as above. It is filed as in vivo. The settings on record: 3 weeks after spraying. The gist of the method: as §1
A further series has as its system Echinochloa crusgalli. The description is as above. It is filed as in vivo. Particulars: 3 weeks after spraying. The gist of the method:
as §1

Another series relates to Portulaca oleracea. The description is as above. Particulars: 3 weeks after spraying. It is filed as in vivo. The gist of the method: as §1
Another series concerns Setaria viridis. The series is described as above. The settings on record: 3 weeks after spraying. It is filed as in vivo. The gist of the method:
as §1

`O=C(COc1cc(N2C(=O)C3=C(CCCC3)C2=O)c(F)cc1Cl)c1ccc([N+](=O)[O-])cc1` [Compound C9, 2-(4-chloro-2-fluoro-5-(2-oxo-2-(4-nitrophenyl)ethoxy)phenyl)-4,5,6,7-tetrahydro-1H-isoindole-1,3(2H)-dione] yielded a melting point of 148 to 150 °C. The “Post-emergence herbicidal activity, Trifoliumre pensL. (grade)” value with Trifoliumre pensL. (dosage 2.5 g/mu) is 5 (Grade 5: the growth control rate is greater than or equal to 85%). In addition, the “Post-emergence herbicidal activity, Trifoliumre pensL. (grade)” value with Trifoliumre pensL. (dosage 5 g/mu) is given as 5 (Grade 5: the growth control rate is greater than or equal to 85%). For the same molecule, the “Post-emergence herbicidal activity, Trifoliumre pensL. (grade)” value in the series with Trifoliumre pensL. (dosage 10 g/mu) is 5 (Grade 5: the growth control rate is greater than or equal to 85%). In addition, in the series on Amaranthus retroflexus (dosage 2.5 g/mu), the “Post-emergence herbicidal activity, A. retroflexus (grade)” value is listed as 5 (Grade 5: the growth control rate is greater than or equal to 85%). Moreover, the “Post-emergence herbicidal activity, A. retroflexus (grade)” value in the series on Amaranthus retroflexus (dosage 5 g/mu) is listed as 5 (Grade 5: the growth control rate is greater than or equal to 85%). For the same molecule, the “Post-emergence herbicidal activity, A. retroflexus (grade)” value in the series on Amaranthus retroflexus (dosage 10 g/mu) was 5 (Grade 5: the growth control rate is greater than or equal to 85%). Also, the “Post-emergence herbicidal activity, A. theophrasti (grade)” value in the series on Abutilon theophrasti (dosage 2.5 g/mu) was 5 (Grade 5: the growth control rate is greater than or equal to 85%). Further, the “Post-emergence herbicidal activity, A. theophrasti (grade)” value in the series on Abutilon theophrasti (dosage 5 g/mu) is recorded as 5 (Grade 5: the growth control rate is greater than or equal to 85%). The “Post-emergence herbicidal activity, A. theophrasti (grade)” value in the series with Abutilon theophrasti (dosage 10 g/mu) is recorded as 5 (Grade 5: the growth control rate is greater than or equal to 85%). Further, the “Post-emergence herbicidal activity, E. crusgalli (grade)” value in the series on Echinochloa crusgalli (dosage 2.5 g/mu) was 1 (Grade 1: the growth control rate is greater than or equal to 5% and less than 20%). In the series on Echinochloa crusgalli (dosage 5 g/mu), the “Post-emergence herbicidal activity, E. crusgalli (grade)” value is 2 (Grade 2: the growth control rate is greater than or equal to 20% and less than 40%). Also, in the series with Echinochloa crusgalli (dosage 10 g/mu), the “Post-emergence herbicidal activity, E. crusgalli (grade)” value is 3 (Grade 3: the growth control rate is greater than or equal to 40% and less than 60%). Also, the “Post-emergence herbicidal activity, P. oleracea (grade)” value in the series with Portulaca oleracea (dosage 2.5 g/mu) was 5 (Grade 5: the growth control rate is greater than or equal to 85%). The “Post-emergence herbicidal activity, P. oleracea (grade)” value in the series with Portulaca oleracea (dosage 5 g/mu) was 5 (Grade 5: the growth control rate is greater than or equal to 85%). In addition, the “Post-emergence herbicidal activity, P. oleracea (grade)” value in the series on Portulaca oleracea (dosage 10 g/mu) is 5 (Grade 5: the growth control rate is greater than or equal to 85%). Further, the “Post-emergence herbicidal activity, S. viridis (grade)” value in the series with Setaria viridis (dosage 2.5 g/mu) is 2 (Grade 2: the growth control rate is greater than or equal to 20% and less than 40%). Also, the “Post-emergence herbicidal activity, S. viridis (grade)” value in the series with Setaria viridis (dosage 5 g/mu) is 3 (Grade 3: the growth control rate is greater than or equal to 40% and less than 60%). For the same molecule, in the series on Setaria viridis (dosage 10 g/mu), the “Post-emergence herbicidal activity, S. viridis (grade)” value was 4 (Grade 4: the growth control rate is greater than or equal to 60% and less than 85%).

The term melting point denotes the temperature, or range, at which the solid turns liquid.

The values are drawn from patent publication US20240300932A1, “N-PHENYLIMINE DERIVATIVE AND PREPARATION METHOD AND USE THEREOF” (Guizhou University, priority 2023, published 2024).
